Common to all, as to type: cell-based
The test system of one test is Molm-13 cells. Kind of test: Cell viability assay (CellTiter-Glo), Molm-13 cells. The note with it: Homo sapiens, 72 h, 3 days; for viability at 0.5 µM: MOLM-13, 0.5 μM; for viability at 10 µM: MOLM-13, 10 μM. As to the method:
FIG. 5 represents antiproliferative activity in Molm-13 cells. The cells were incubated with Compound 1, 2, or 3 (at the indicated concentration), DMSO, or pomalidomide. Compound activity was measured based on the signal from remaining viable cells.
(§1) Molm-13 cells were cultivated in RPMI-1640 (10% FBS/1% pen-strep) and were plated in white walled 96-well plates at 20,000 cells/well. H1048 cells were cultured in DMEM:F12 media supplemented with 5% fetal bovine serum, insulin, transferrin, sodium selenite, hydrocortisone, estradiol, penicillin and streptomycin, and were plated in white walled 96-well plates at 20,000 cells/well.
(§2) Cells were treated with compound at the indicated concentration or DMSO (control) and the cultures were incubated for 3 days at 37° C. and 5% CO2. Following the incubation period, 100 μL of CellTiterGlow (CTG) reagent (CellTiter-Glo® Luminescent Cell Viability Assay, Promega (Madison, Wis.)) was added to each well. Following a 10 min incubation with shaking, luminescence was measured using a Victor Wallac Luminometer.

The subject of a further test is IL-1β. Kind of test: IL-1 beta in LPS-induced PBMCs / CD14+ monocytes, Meso Scale assay. The procedure: FIG. 2 represents the activity against IL-1-beta in CD14 monocytes, plated in 96 well plates and pretreated with Compounds 1, 2, or 3, or pomalidomide, for 1 h and then induced with 100 ng/mL LPS for 18-24 h. Cytokines were measured according to MesoScale protocol. Negative control wells were treated with DMSO. Compound activity was measured as a percentage of LPS-induced activity.
(§3) Either frozen primary blood mononuclear cells (PBMCs) or frozen CD14+ mobilized peripheral blood monocytes were purchased from AllCells (PB003F, Normal Peripheral Blood MNC (Alameda, Calif.)). Cells were quick thawed, washed 1-time with RPMI-1640 (10% FBS/1% Pen-Strep) and plated in 96 well plates at 200,000 cells per well. Cells were pretreated with DMSO only, pomalidomide or the indicated compounds for 1 h and then induced with 100 ng/mL lipopolysaccharide (LPS) for 18-24 h. The supernatant was analyzed for IL-1 beta, IL-6, and TNF-alpha, using Meso Scale assay according to manufacturer's protocol. The negative control wells were treated with DMSO.
(§4) Compound activity is measured as fold difference from the DMSO control. Compounds 1, 2, and 3 each reduced expression of IL-1-b in LPS-stimulated PBMCs by over 80% at 1 uM, relative to a just under 80% reduction with pomalidomide at 10 μM (FIG. 2).

In another test the target is T1, GSPT1 (Homo sapiens, UniProt P15170).
T1 construct: Whole cell extract was prepared with RIPA buffer according to manufacturer's protocol; endogenous in cells; host or cells: Jurkat cells
T1 sequence (P15170 whole entry): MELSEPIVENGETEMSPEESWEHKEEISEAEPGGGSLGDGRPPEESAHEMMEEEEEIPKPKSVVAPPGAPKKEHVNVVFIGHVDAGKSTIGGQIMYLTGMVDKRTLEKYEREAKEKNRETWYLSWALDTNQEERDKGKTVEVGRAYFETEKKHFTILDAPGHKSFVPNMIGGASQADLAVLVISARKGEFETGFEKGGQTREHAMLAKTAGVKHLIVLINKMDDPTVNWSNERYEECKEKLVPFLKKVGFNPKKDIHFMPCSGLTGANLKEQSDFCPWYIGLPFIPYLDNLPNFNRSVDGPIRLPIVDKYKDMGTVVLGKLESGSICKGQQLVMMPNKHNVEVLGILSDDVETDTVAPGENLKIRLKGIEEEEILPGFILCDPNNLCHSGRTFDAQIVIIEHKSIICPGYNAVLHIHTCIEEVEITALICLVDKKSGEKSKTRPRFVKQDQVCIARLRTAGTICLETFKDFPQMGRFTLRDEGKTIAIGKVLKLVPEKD
Kind of test: Western blot analysis of GSPT1 protein levels in Jurkat cells. The note with it: DMSO = 100.00; for GSPT1 protein level (% of DMSO control) at 0.1 µM: 100 nM compound; for GSPT1 protein level (% of DMSO control) at 1 µM: 1 uM compound. The procedure: FIG. 1 represents the activity against CK1α, ikaros, and GPST1 in Jurkat cells, plated in 96 well plates. Cells were pretreated with compounds for 4 h and then lysed and protein levels measure via Western blots. The negative control wells were treated with DMSO. Cells were treated with the indicated compound at the indicated concentration. Compound activity is measured as a decrease in GSPT1 protein levels.
Western Blot Protocol: Cell lines were grown in RPMI 1640 supplemented with streptomycin, penicillin and 10% fetal bovine serum.
Jurkat cells were cultured at approximately 10^6 cells per mL, DMSO or the indicated compound was added to the cells and allowed to incubate for 6-8 h. Whole cell extract was prepared with RIPA buffer according to manufacturer's protocol (Pierce (Dallas, Tex.)). Briefly, ˜2×10^6 cells were washed once in PBS, the cell pellet was resuspended in RIPA buffer and allowed to incubate for 15 min on ice. Cell debris was removed by centrifugation and the cleared whole cell lysate was transferred to a new tube for further analysis.
For western blot analysis, whole cell extracts were separated on 4-12% SDS-polyacrylamide gels, transferred to nitrocellulose and probed with the indicated primary antibodies. Membranes were subsequently washed and probed with the appropriate horseradish peroxidase (HRP)-conjugated secondary antibody. Membranes were subsequently washed and probed with the appropriate IRDye secondary antibodies (LI-COR). The signal was detected using the Odyssey Imaging System (LI-COR).
(In general: A western blot detects proteins with antibodies after separation by electrophoresis.)

The test system of the next test is H1048 cells. Kind of test: Cell viability assay (CellTiter-Glo), H1048 cells. The note with it: Homo sapiens, NCI-H1048, 72 h, 3 days; for viability at 1 µM: H1048, 1 μM; for viability at 10 µM: H1048, 10 μM. As to the method:
as §1, §2
In general terms: Cellular ATP, detected with luciferase, serves as a proxy for viable cell number.

The test system of another test is IL-6. Kind of test: IL-6 in LPS-induced PBMCs / CD14+ monocytes, Meso Scale assay. As to the method:
FIG. 3 represents the activity against IL-6 in CD14, monocytes, plated in 96 well plates and pretreated with Compounds 1, 2, or 3, or pomalidomide, for 1 h and then induced with 100 ng/mL LPS for 18-24 h. Cytokines were measured according to MesoScale protocol. Negative control wells were treated with DMSO. Cells were treated with compound (at the indicated concentrations) or 10 μM pomalidomide. Compound activity was measured as a percentage of LPS-induced activity.
as §3, §4

Another test has as its system TNF-α. Kind of test: TNF-alpha in LPS-induced PBMCs / CD14+ monocytes, Meso Scale assay. The procedure: FIG. 4 represents the activity against TNF-alpha in CD14, monocytes, plated in 96 well plates and pretreated with Compounds 1, 2, or 3, or pomalidomide, for 1 h and then induced with 100 ng/mL LPS for 18-24 h. Cytokines were measured according to MesoScale protocol. The negative control wells were treated with DMSO. Cells were treated with compound (at the indicated concentrations) or 10 μM pomalidomide. Compound activity was measured as a percentage of LPS-induced activity.
as §3, §4

A further test relates to IL-2. Kind of test: IL-2 in PBMCs on anti-human CD3 (OKT3) coated plates, Mesoscale analysis. The settings on record: PBMC, 24 h, relative to DMSO control, read-out: Fold Change IL-2. As to the method:
For the IL-2 analysis, 96 well plates were precoated with 1 μg/mL anti-human CD3 antibody (OKT3, eBioscience Inc., San Diego, Calif.). After washing with PBS, compounds were added (50 μL/well) followed by PBMCs diluted at 3-4 million cells/mL (150 μL/well). Plates were incubated for 24 h and the supernatants collected for Mesoscale IL-2 analysis.
as §4

Eight compounds from patent US10857155B2, “Compounds targeting proteins, compositions, methods, and uses thereof” (BioTheryX, Inc., priority 2017, dated 2020) can be followed below.

As a reminder, the viability is a read-out of living cells in per cent, often relative to untreated cells. What is called inhibition is the relative decrease from the control value, in per cent. Read a high inhibition as strong suppression.

Turning to `COc1ccc(NC(=O)NCc2ccc3c(c2)CN([C@H]2CCCC(=O)NC2=O)C3=O)cc1Cl` [Compound 8, (S)-1-(3-chloro-4-methoxyphenyl)-3-((2-(2,7-dioxoazepan-3-yl)-1-oxoisoindolin-5-yl)methyl)urea], the viability at 0.5 µM in the test on Molm-13 cells came to 48%. In the test with IL-1β, this compound registered an inhibition at 1 µM of 78%. On GSPT1, the GSPT1 protein level (% of DMSO control) at 0.1 µM was 52.6% and the GSPT1 protein level (% of DMSO control) at 1 µM turned out to be 14.9%. For the same compound, in the test with H1048 cells, the viability at 1 µM amounted to 17.4% and the viability at 10 µM is 4.4%. This compound also yielded an inhibition at 1 µM in the test with IL-6 of 95%. The compound further gave an inhibition at 1 µM with TNF-α of 84%. For the same compound, the fold induction at 1 µM in the test with IL-2 is 0.9.
In the case of `Cc1ccc(CC(=O)NCc2ccc3c(c2)CN([C@H]2CCCC(=O)NC2=O)C3=O)cc1` [Compound 9, (S)—N-((2-(2,7-dioxoazepan-3-yl)-1-oxoisoindolin-5-yl)methyl)-2-(p-tolyl)acetamide], the viability at 10 µM in the test with Molm-13 cells amounted to 99%; with H1048 cells, 7.27%. Moreover, the inhibition at 1 µM in the test with IL-1β was determined as 61%; in the test with IL-6, 63%; in the test with TNF-α it was 64%. Also, the GSPT1 protein level (% of DMSO control) at 0.1 µM on GSPT1 amounted to 128%. The same compound registered a GSPT1 protein level (% of DMSO control) at 1 µM at GSPT1 of 32.1%. In the test on H1048 cells, the viability at 1 µM is 57.1%. Further, in the test with IL-2, the fold induction at 1 µM stood at 1.8.
For `O=C(Cc1ccc(C(F)(F)F)c(Cl)c1)NCc1ccc2c(c1)CN([C@H]1CCCC(=O)NC1=O)C2=O` [Compound 10, (S)-2-(3-chloro-4-(trifluoromethyl)phenyl)-N-((2-(2,7-dioxoazepan-3-yl)-1-oxoisoindolin-5-yl)methyl)acetamide], the viability at 10 µM with Molm-13 cells worked out at 96%; in the test with H1048 cells, 21.5%. Also, the inhibition at 1 µM with IL-1β is 68%; in the test on IL-6 it was 67%; in the test with TNF-α, 67%. Moreover, on GSPT1, the GSPT1 protein level (% of DMSO control) at 0.1 µM was 83.3%. At GSPT1, this compound showed a GSPT1 protein level (% of DMSO control) at 1 µM of 49.3%. In the test with H1048 cells, the viability at 1 µM came out at 82.1%. Moreover, the fold induction at 1 µM with IL-2 is 1.5.
As for `Cc1ccc(CC(=O)NCc2ccc3c(c2)CN([C@H]2CCCC(=O)NC2=O)C3=O)cc1CN1CCOCC1` [Compound 11, (S)—N-((2-(2,7-dioxoazepan-3-yl)-1-oxoisoindolin-5-yl)methyl)-2-(4-methyl-3-(morpholinomethyl)phenyl)acetamide], the viability at 10 µM in the test on Molm-13 cells came to 99%; in the test with H1048 cells it was 11.6%. Also, the inhibition at 1 µM was 0% in the test on IL-1β, 5% in the test on IL-6 and 12% in the test with TNF-α. The compound further gave a GSPT1 protein level (% of DMSO control) at 0.1 µM on GSPT1 of 137%. On GSPT1, this compound gave a GSPT1 protein level (% of DMSO control) at 1 µM of 56%. The viability at 1 µM with H1048 cells is 70.8%. Further, in the test with IL-2, the fold induction at 1 µM was 0.6.
With `COc1ccc(CC(=O)NCc2ccc3c(c2)CN([C@H]2CCCC(=O)NC2=O)C3=O)cc1Cl` [Compound 13, (S)-2-(3-chloro-4-methoxyphenyl)-N-((2-(2,7-dioxoazepan-3-yl)-1-oxoisoindolin-5-yl)methyl)acetamide], the viability at 10 µM in the test on Molm-13 cells came out at 84%; in the test on H1048 cells, 44.2%. Further, the inhibition at 1 µM is 77% in the test with IL-1β, 85% with IL-6 and 53% with TNF-α. Moreover, the GSPT1 protein level (% of DMSO control) at 0.1 µM at GSPT1 amounted to 95.9%. At GSPT1, this compound showed a GSPT1 protein level (% of DMSO control) at 1 µM of 46.2%. Also, the viability at 1 µM in the test on H1048 cells is 97.8%. In addition, the fold induction at 1 µM in the test with IL-2 was 2.6.
Turning to `O=C(Cc1cccc(CN2CCOCC2)c1)NCc1ccc2c(c1)CN([C@H]1CCCC(=O)NC1=O)C2=O` [Compound 14, (S)—N-((2-(2,7-dioxoazepan-3-yl)-1-oxoisoindolin-5-yl)methyl)-2-(3-(morpholinomethyl)phenyl)acetamide], the figures for the viability at 10 µM in the test with Molm-13 cells and in the test on H1048 cells were 28% and 56.2%, respectively. In addition, the inhibition at 0.1 µM in the test on IL-1β, in the test on IL-6 and with TNF-α was 0% in each case. In addition, the GSPT1 protein level (% of DMSO control) at 0.1 µM at GSPT1 stood at 145%. Further, on GSPT1, the GSPT1 protein level (% of DMSO control) at 1 µM came out at 82.8%. Further, the viability at 1 µM with H1048 cells was determined as 101%. The fold induction at 0.1 µM in the test with IL-2 was determined as 0.9.
Turning to `O=C(Cc1ccc(Cl)c(CN2CCOCC2)c1)NCc1ccc2c(c1)CN([C@H]1CCCC(=O)NC1=O)C2=O` [Compound 15, (S)-2-(4-chloro-3-(morpholinomethyl)phenyl)-N-((2-(2,7-dioxoazepan-3-yl)-1-oxoisoindolin-5-yl)methyl)acetamide], the viability at 10 µM in the test with Molm-13 cells came to 84%; in the test on H1048 cells, 35%. Also, the inhibition at 0.1 µM in the test on IL-1β, with IL-6 and in the test on TNF-α was 0% each time. The same compound gave a GSPT1 protein level (% of DMSO control) at 0.1 µM at GSPT1 of 167%. On GSPT1, this compound came in with a GSPT1 protein level (% of DMSO control) at 1 µM of 111%. For the same compound, the viability at 1 µM with H1048 cells was found to be 93.3%. Besides, the fold induction at 0.1 µM with IL-2 is 1.
On to `Cc1ccc(NC(=O)NCc2ccc3c(c2C)CN([C@H]2CCCC(=O)NC2=O)C3=O)cc1Cl` [Compound 16, (S)-1-(3-chloro-4-methylphenyl)-3-((2-(2,7-dioxoazepan-3-yl)-4-methyl-1-oxoisoindolin-5-yl)methyl)urea], for which the viability at 0.5 µM in the test with Molm-13 cells was 70%. Further, in the test on IL-1β, at 0.1 µM the inhibition was 72%. In addition, on GSPT1, the GSPT1 protein level (% of DMSO control) at 0.1 µM was found to be 59.4% and the GSPT1 protein level (% of DMSO control) at 1 µM was 39.3%. In the test on H1048 cells, the viability at 1 µM came to 7.66% and the viability at 10 µM was determined as 3.93%. Further, in the test with IL-6, the inhibition at 0.1 µM came out at 72%. The inhibition at 0.1 µM with TNF-α is 78%. Moreover, the fold induction at 0.1 µM in the test on IL-2 amounted to 1.7.
